Measurements published in EP4603107A1, “BIOORTHOGONAL, ANILINIUM BASED CLEAVABLE TETRAZINES” (University of Copenhagen, priority 2024, dated 2025).

Key:
[1] = Chemical stability in PBS (HPLC); assay type: physicochemical; conditions: HPLC at RT, 9:1 PBS/MeCN solution, 1.0-1.5 mM Tz, 254 nm; read-out: PBS stability t1/2
Experimental: Ten tetrazines of formula (I) (Table 2) were tested in relation to chemical stability in PBS. The results are shown in Table 2 for the chemical half-life was measured by HPLC at RT, in 9:1 PBS/MeCN solution, using 1.0-1.5 mM Tz (a); based on average peak intensities of the corresponding Tz and the corresponding oxadiazoles (the degradation product), at 254 nm.

[2] = Click kinetics, stopped-flow measurement of tetrazine ligation with equatorial TCO-PEG4; conditions: PBS (10mM), 37 °C, TCO 1 mM, tetrazine 100 µM, absorbance at 535 nm
Experimental: Nine tetrazines of formula (I) (Table 1) were clicked with equatorial TCO-PEG4 (rel-(1R-4E-pR)-cyclooct-4-en-1-yl (2-(2-(2-(2-hydroxyethoxy)ethoxy)ethoxy)ethyl)carbamate).
Stopped-flow measurements were performed using an SX20-LED stopped-flow spectrophotometer (Applied Photophysics) equipped with a 535 nm LED (optical pathlength 10 mm, full width half-maximum 34 nm) to monitor the characteristic tetrazine visible light absorbance (520-540 nm).
A stock solution of eqTCO-PEG4 in DMSO was prepared at an approximate concentration above 100 mM. The exact concentration was determined by absorbance titration with 3,6-di-2-pyridyl-1,2,4,5-tetrazine. Stock solutions of tetrazines in DMSO were prepared at a concentration of 10 mM. These initial stock solutions were diluted into PBS (10mM) before stopped-flow analysis to reach a final TCO concentration of 1 mM and a tetrazine concentration of 100 µM. The reagent syringes were loaded with solutions of the Tz and eqTCO-PEG4, and the instrument was primed. Subsequent data were collected in triplicate to sextuplicate for each tetrazine. Reactions were conducted at 37 °C and recorded automatically at the time of acquisition. Data sets were analyzed by fitting an exponential decay using Prism 6 (Graphpad) to calculate the observed pseudo-first-order rate constants that were converted into second-order rate constants by dividing with the concentration of the excess TCO compound. Table 1: second rate order constant (M-1s-1) for the ligation between nine tetrazines and equatorial TCO-PEG4 (rel-(1R-4E-pR)-cyclooct-4-en-1-yl (2-(2-(2-(2-hydroxyethoxy)ethoxy)ethoxy)ethyl)carbamate).

Row | Structure (SMILES) | half-life [1] | second order rate constant [2]
1 | COc1cccc(-c2nnc(C[N+](C)(C)c3ccccc3)nn2)c1.[Br-] [Compound 19, N-((6-(3-methoxyphenyl)-1,2,4,5-tetrazin-3-yl)methyl)-N,N-dimethylbenzenaminium bromide] | 0.803 ± 0.00833 h | 790 M⁻¹ s⁻¹
2 | C[N+](C)(Cc1nnc(-c2ccc(F)cc2)nn1)c1ccccc1.[Br-] [Compound 20, N-((6-(4-fluorophenyl)-1,2,4,5-tetrazin-3-yl)methyl)-N,N-dimethylbenzenaminium bromide] | 0.797 ± 0.0583 h | 580 M⁻¹ s⁻¹
3 | C[N+](C)(Cc1nnc(-c2ccccc2)nn1)c1ccccc1.[Br-] [Compound 21, N,N-dimethyl-N-((6-phenyl-1,2,4,5-tetrazin-3-yl)methyl)benzenaminium bromide] | 0.9667 ± 0.00833 h | 650 M⁻¹ s⁻¹
4 | Cc1ccc(-c2nnc(C[N+](C)(C)c3ccccc3)nn2)cc1.[Br-] [Compound 22, N,N-dimethyl-N-((6-(p-tolyl)-1,2,4,5-tetrazin-3-yl)methyl)benzenaminium bromide] | 1.783 ± 0.0167 h | 480 M⁻¹ s⁻¹
5 | COc1ccc(-c2nnc(C[N+](C)(C)c3ccccc3)nn2)cc1.[Br-] [Compound 23, N-((6-(4-methoxyphenyl)-1,2,4,5-tetrazin-3-yl)methyl)-N,N-dimethylbenzenaminium bromide] | 2.58 ± 0.683 h | 370 M⁻¹ s⁻¹
6 | C[N+](C)(Cc1nnc(-c2ccc(O)cc2)nn1)c1ccccc1.[Br-] [Compound 24, N-((6-(4-hydroxyphenyl)-1,2,4,5-tetrazin-3-yl)methyl)-N,N-dimethylbenzenaminium bromide] | 4.95 ± 0.1 h | –

Further lines, with some results ahead:

Row | half-life [1] | Structure (SMILES) | second order rate constant [2]
7 | 1.15 ± 0.1 h | Cc1ccc([N+](C)(C)Cc2nnc(-c3ccccc3)nn2)cc1.[Br-] [Compound 25, N,N,4-trimethyl-N-((6-phenyl-1,2,4,5-tetrazin-3-yl)methyl)benzenaminium bromide] | 620 M⁻¹ s⁻¹
8 | 1.87 ± 0.357 h | COc1ccc([N+](C)(C)Cc2nnc(-c3ccccc3)nn2)cc1.[Br-] [Compound 26, 4-methoxy-N,N-dimethyl-N-((6-phenyl-1,2,4,5-tetrazin-3-yl)methyl)benzenaminium bromide] | 670 M⁻¹ s⁻¹
9 | 5.19 ± 1.15 h | C[N+](C)(Cc1nnc(-c2ccccc2)nn1)c1ccc(O)cc1.[Br-] [Compound 27, 4-hydroxy-N,N-dimethyl-N-((6-phenyl-1,2,4,5-tetrazin-3-yl)methyl)benzenaminium bromide] | 620 M⁻¹ s⁻¹
10 | 9.365 ± 0.0125 h | COc1ccc(-c2nnc(C[N+](C)(C)c3ccc(OC)cc3)nn2)cc1.[Br-] [Compound 29, 4-methoxy-N-((6-(4-methoxyphenyl)-1,2,4,5-tetrazin-3-yl)methyl)-N,N-dimethylbenzenaminium bromide] | 340 M⁻¹ s⁻¹
